Some test systems named below: U-251; UACC-62; OVCAR-8; Malme-3M; K562; SNB-75; OVCAR-3; HT-29; NCI-H522; 786-0; EKVX; NCI-H23; IGROV-1; SF-295; CCRF-CEM; SK-MEL-5; NCI-H460; RPMI-8226; UACC-257; HL-60.
Test in all cases: DTP human tumour cell line panel, 48 h

The record followed here is ChEMBL document CHEMBL1201862, “PubChem BioAssay data set” (2004).

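Dose response: 5 concentrations. Exposure: 48 h. Format: 96-well plates. Endpoint: linear interpolation; highest concentration if not reached. GI50 marks 50% less growth.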 Active and inactive are the calls of the source. Cut-off read from the data, not from the text of the source: active = GI50 up to about 1.1 µM and inactive = higher. Where a SMILES comes first, the peptide text is derived from it. The star is where a group is joined. Boc = CC(C)(C)OC(=O)*

By GI50 is commonly meant the concentration at which growth is held to half of that of the control.

With `CC(=O)/C=C1\CC(=O)N(C)c2ccccc2N1`, the GI50 is > 100 µM (inactive) with U-251; > 100 µM (inactive) in the test with UACC-62; > 100 µM (inactive) with OVCAR-8; > 100 µM (inactive) in the test with Malme-3M; > 100 µM (inactive) in the test with K562; 0.0723 µM (active) with SNB-75. Also, the GI50 with OVCAR-3, in the test on HT-29, in the test on NCI-H522, with 786-0, in the test on EKVX and in the test with NCI-H23 was > 100 µM (inactive) each time. The GI50 was > 100 µM (inactive) with IGROV-1; > 100 µM (inactive) in the test with SF-295; > 100 µM (inactive) in the test on CCRF-CEM; 0.57 µM (active) in the test on SK-MEL-5; > 100 µM (inactive) with NCI-H460.

`CN(C)CC1CCCC1=O` (stereo not given): the GI50 in the test on U-251 was 6.82 µM (inactive); in the test with UACC-62 it was 4.37 µM (inactive); in the test on OVCAR-8, 3.62 µM (inactive); in the test on Malme-3M, 1.02 µM (active); in the test on K562, 0.0632 µM (active); in the test on SNB-75 it was 3.78 µM (inactive). Moreover, the GI50 is 0.0502 µM (active) in the test on RPMI-8226; 1.51 µM (inactive) with OVCAR-3; 1.5 µM (inactive) with UACC-257; 0.682 µM (active) in the test with HT-29; 7.53 µM (inactive) in the test on 786-0; 1.71 µM (inactive) with EKVX. Moreover, the GI50 in the test with NCI-H23 was 4.48 µM (inactive); in the test on IGROV-1 it was 7.57 µM (inactive); in the test on HL-60 it was 0.084 µM (active); in the test on SF-295, 19.8 µM (inactive); with CCRF-CEM, 0.138 µM (active); with SK-MEL-5, 2.86 µM (inactive). Besides, the GI50 with NCI-H460 was 10.5 µM (inactive).

Regarding `CC(=O)[C@@]1(c2ccccc2)CC2(CCN(C)CC2)O[C@H]1C`, the GI50 in the test on U-251, with OVCAR-8, with Malme-3M, in the test on K562, in the test with SNB-75 and in the test with RPMI-8226 was > 100 µM (inactive) in each case. Also, the GI50 in the test on OVCAR-3, in the test on UACC-257, with HT-29, with NCI-H522, in the test with 786-0 and in the test with EKVX was > 100 µM (inactive) throughout. Further, the GI50 in the test on NCI-H23, in the test on IGROV-1, with SF-295, with SK-MEL-5 and with NCI-H460 was > 100 µM (inactive) in each case.

As for `CC(=O)OC1/C=C(\C)C(OC(C)=O)C/C=C(/C)CCC2C(/C=C/C1=O)C2(C)C` (stereo not given), the GI50 in the test on U-251 is > 100 µM (inactive); in the test with UACC-62, > 100 µM (inactive); in the test with OVCAR-8, > 100 µM (inactive); in the test on Malme-3M, > 100 µM (inactive); in the test with SNB-75 it was 31.2 µM (inactive); in the test with OVCAR-3, > 100 µM (inactive). Moreover, the GI50 in the test on UACC-257 is > 100 µM (inactive); in the test with HT-29, > 100 µM (inactive); in the test on NCI-H522, 47.8 µM (inactive); in the test with EKVX it was > 100 µM (inactive); in the test with NCI-H23, > 100 µM (inactive); with IGROV-1, > 100 µM (inactive). Besides, the GI50 is 91 µM (inactive) in the test with SF-295, > 100 µM (inactive) in the test on CCRF-CEM, 92.9 µM (inactive) in the test with SK-MEL-5 and > 100 µM (inactive) with NCI-H460.

Consider `CC(C)Oc1cccc(N2C(n3ccnc3)=Nc3ccncc3S2(=O)=O)c1`, for which the GI50 in the test on U-251 is 15.4 µM (inactive); in the test with UACC-62 it was 15.7 µM (inactive); in the test on OVCAR-8, 14.5 µM (inactive); in the test on Malme-3M, 13.5 µM (inactive); in the test on K562, 10.2 µM (inactive); in the test on SNB-75, 18.7 µM (inactive). The GI50 is 3 µM (inactive) in the test on RPMI-8226; 9.35 µM (inactive) in the test on OVCAR-3; 16.4 µM (inactive) with UACC-257; 15.9 µM (inactive) with HT-29; 9.44 µM (inactive) in the test on NCI-H522; 10.4 µM (inactive) in the test with 786-0. Besides, the GI50 in the test with EKVX was 16.2 µM (inactive); with NCI-H23, 11.5 µM (inactive); with IGROV-1, 14.6 µM (inactive); in the test on SF-295, 34.9 µM (inactive); in the test with SK-MEL-5, 13.2 µM (inactive); with NCI-H460, 18.8 µM (inactive).

In the case of `Cc1cnc2nc(-c3ccc4ccccc4c3)cc(O)c2c1`, the GI50 is 0.317 µM (active) in the test with UACC-62; 0.685 µM (active) in the test with OVCAR-8; 0.251 µM (active) in the test on K562; 0.391 µM (active) in the test on SNB-75; 0.305 µM (active) in the test on RPMI-8226; 0.53 µM (active) in the test on HT-29. In addition, the GI50 is 0.321 µM (active) with NCI-H522; 0.61 µM (active) in the test on 786-0; 0.434 µM (active) in the test with NCI-H23; 0.843 µM (active) in the test with IGROV-1; 0.323 µM (active) in the test with CCRF-CEM.

As to `COc1cc(C2C(C(=O)NCc3ccccc3)=C(C)NC(C)=C2C(=O)NCc2ccccc2)ccc1O`, the GI50 was 28.6 µM (inactive) in the test on U-251; 21.8 µM (inactive) with UACC-62; 38.3 µM (inactive) in the test on OVCAR-8; > 100 µM (inactive) in the test on Malme-3M; 30.8 µM (inactive) in the test with K562; 44.9 µM (inactive) in the test on SNB-75. The GI50 with RPMI-8226 is 23 µM (inactive); with OVCAR-3, 29.8 µM (inactive); in the test with UACC-257, 44.1 µM (inactive); in the test with HT-29 it was 21.5 µM (inactive); in the test with 786-0 it was 46.2 µM (inactive); in the test with EKVX, 16.6 µM (inactive). The GI50 with NCI-H23 was 31.7 µM (inactive); with IGROV-1, 34.4 µM (inactive); in the test with HL-60, 25.4 µM (inactive); in the test with SF-295, 46 µM (inactive); in the test on CCRF-CEM, 26.3 µM (inactive); in the test with SK-MEL-5, 59.4 µM (inactive). For the same compound, the GI50 in the test on NCI-H460 was 24.3 µM (inactive).

As to `COC(=O)[C@H](Cc1ccc(O)cc1)NC(=O)[C@H](Cc1ccc(O)cc1)NC(=O)OC(C)(C)C` (Boc-Tyr-Tyr-OMe), the GI50 was > 100 µM (inactive) in the test with UACC-62; 66.4 µM (inactive) with OVCAR-8; > 100 µM (inactive) with Malme-3M; > 100 µM (inactive) with SNB-75; 72.3 µM (inactive) in the test on OVCAR-3; > 100 µM (inactive) in the test with UACC-257. The GI50 in the test on HT-29 was > 100 µM (inactive); with NCI-H522, 28 µM (inactive); in the test on 786-0 it was > 100 µM (inactive); with EKVX, > 100 µM (inactive); in the test with NCI-H23, > 100 µM (inactive); with IGROV-1, 56.6 µM (inactive). The GI50 in the test on SF-295 was > 100 µM (inactive); in the test on SK-MEL-5, 38 µM (inactive); with NCI-H460 it was > 100 µM (inactive).

For the compound `C[C@]12CC[C@H](OC3CCCCO3)CC1=CC[C@@H]1C2CC[C@]2(C)/C(=N/OCCC#N)CCC12` (stereo not given in full), the GI50 with U-251 is 40.4 µM (inactive); with UACC-62 it was 97.1 µM (inactive); in the test on OVCAR-8, 34.2 µM (inactive); in the test on Malme-3M, > 100 µM (inactive); in the test with K562, 6.95 µM (inactive); with SNB-75 it was 20.3 µM (inactive). Further, the GI50 in the test on RPMI-8226 is > 100 µM (inactive); in the test with OVCAR-3, 68.7 µM (inactive); in the test with UACC-257, 6.62 µM (inactive); in the test with HT-29, 2.17 µM (inactive); with NCI-H522 it was 18.5 µM (inactive); in the test on 786-0, 23.1 µM (inactive). Also, the GI50 was 19.2 µM (inactive) with EKVX; 11.4 µM (inactive) in the test with NCI-H23; > 100 µM (inactive) with IGROV-1; 21.3 µM (inactive) with SF-295; 7.74 µM (inactive) with SK-MEL-5; 15.2 µM (inactive) in the test on NCI-H460.
